Read-outs that look alike come from different tables or passages of the source.
Assays:
[1] = tested on: HeLa cells undergoing dopamine-induced apoptosis; conditions: 750 nM
Experimental: HeLa cells were plated on tissue culture plates at a density of 3×10^6 cells/10 cm dish, and grown in a DMEM medium containing 10% FCS, as described in A. The cells were then incubated at 37° C. overnight, and then the medium was replaced with a medium containing 2% FCS and 500 μM of dopamine. 18 hours later, the medium was aspirated and discarded, and 10 ml of Phosphate Buffered Saline pH 7.4 (PBS) were added to the culture dish. The cells which were detached from the culture dish into the PBS were collected. These cells represent advanced apoptotic cells. The remaining cells which were attached to the culture dish were trypsinized by the addition of 2 ml of trypsin for 2 minutes at 37° C., followed by the addition of 10 ml of a medium containing 10% of FCS. The cells were then washed with PBS containing 2% Bovine Serum Albumin (BSA), and resuspended in TBS containing 2% BSA (TBS-BSA). These cells were regarded as early apoptotic cells. […] Only non-treated cells that were attached to the culture dish were used as control cells for the FACS analysis.
A set of 3 different cell types was taken:
The incubation with the NST300 compounds or control compound was performed in a final volume of 100 μl TBS-BSA, 5 μg/ml of propidium iodide (PI) and 750 nM of the tested compound or the control compound.
PI is a red fluorescent dye that stains DNA. […] Only cells that are in advanced apoptotic stages, or cells that have already died by apoptosis or necrosis will be permeable to PI and will be stained with the dye. […] The cells were then washed in 500 μl of cold TBS-BSA and centrifugated as before. The cells were then suspended in 100 μl of TBS-BSA containing streptavidin conjugated to fluorescein (FITC). […] Thereafter, the cells were washed three times in TBS-BSA and were taken for FACS analysis.
The FACS analysis was performed on a Beckton-Dickinson cell sorter, using lysis II software. Excitation was at 488 nm and the emission or FITC detection was at 535 nm and for PI detection at 585 nm.

[2] = tested on: clotting induced by negatively charged phospholipids in normal plasma
Experimental: The ability of NST300 compounds to inhibit coagulaton catalyzed by negatively—charged phospholipids was evaluated in a standard coagulation test of the Russell viper venom (RVV) assay. The RVV reagent directly activates factor x present in the plasma, thus promoting prothrombinase complex formation. This reagent is widely used as a standard phospholipid responsive clotting test. (Thiagarajan et al., Blood, 1986; 869-874).
The RVV reagent kit, containing RVV and negatively charged phospholipids, from Gradipore, Australia was used. The reactions were started by mixing 100 μl of RVV reagent, and 100 μl of quality control plasma collected from normal individuals (commercially available from Instrumentation Laboratory, Italy). Clotting time was determined as the time-point beyond which the continuously mixed reaction ingredients in the test tube, could no longer be aspirated with a pasteur pipette. Clotting time was measured independently by two separate researchers.

[3] = tested on: procoagulant activity of apoptotic HeLa S3 cells; conditions: 0.5 μM; for effect on procoagulant effect of apoptotic cells: FIG. 5a
Experimental: In the standard APTT test, clot formation is triggered by recalcification of plasma and addition of cephalin, i.e. negatively-charged phospholipids. Time until clot formation was measured as described in Example 3. […] In the modified APTT test, used in the present study, the addition of negatively-charged phospholipids (cephalin) was replaced by addition of apoptotic cells.
The cultured medium was discarded, and cells that were loosely attached to the growing surface, were collected in PBS, as described in Example 2B. These cells were washed and resuspended in TBS, and were regarded as advanced apoptotic cells. Equal numbers of apoptotic or control non-treated cells (10^5) in a volume of 100 μl, were mixed with 100 μl of 25 mM of CaCl2 and the clotting time was measured. […] Inhibition of their procoagulant activity by NST300 compounds was tested following pre-incubation of apoptotic cells with the different NST300 compounds.
Pre-incubation of equal numbers of apoptotic or control non-treated cells (10^5) with NST300 compounds was for 10 minutes at room temperature in a final volume of 100 μl. The compounds were used at concentration of 0.5 μM. The results can be seen in FIG. 5a.

[4] = tested on: HeLa S3 cells undergoing dopamine (DA)-induced apoptosis
Experimental: Said compounds were each dissolved in TBS (Tris Buffered Saline; 10 mM Tris PH 8.0; 150 mM NaCl), at a stock concentration of 10 mM.
HeLa S3 cells (ATCC CCL-2.2) were cultured on a glass chamber slide (Nunc) on a culture area of […]. Chamber slides were pre-coated with 1% gelatin (Sigma) Cells were seeded at a density of 8×10^4 cells/chamber, in a volume of 300 μl of culture medium [Dulbecco's Modified Eagle's Medium (DMEM) supplemented with 2 mM of L-Glutamine; 100 units/ml of Penicilin; 100 μg/ml of Streptomycin; 12.5 units/ml of Nystatin and 10% of Fetal Calf Serum (FCS)]. Following 24 hours of incubation the cells were treated with an apoptotic trigger [i.e. dopamine (DA), which is a well characterized model of apoptosis (Lou et al., J. Biol. Chem. 1998; 273:3756-3764)].
For the DA treatment, the culture medium was replaced by a low serum containing medium (2% FCS), with 500 μM of dopamine (from RBI, Mass., USA) for 18 hours.
The evaluation was performed by staining with Hoechst 33342 dye (Molecular probes). This blue fluorescent dye is rapidly permeable into cells and stains DNA. Hoechst 33342 was added to growing cultures at a concentration of 1 μg/ml and 20 minutes later, the cells were visualized under UV light microscopy. The relative number of apoptotic cells with condensed or fragmented chromatin was then evaluated and compared with non-apoptotic cells which characteristically show a pale and diffuse staining. Photomicrographs were taken for documentation. […] This method was used to evaluate the level of apoptosis in cultured cells prior to binding to the NST300 compounds.
Apoptotic, as well as control untreated cells were grown as specified above and washed twice with TBS. The slides were then incubated with the NST300 compound at concentrations of 250-750 nM for 60 minutes, in a total volume of 100 μl. Slides were then dipped into a Couplin Jar containing 50 ml of TBS, and then incubated with 50 ng/ml of a sterptavidin reagent labeled with FITC (Fluorescein Isothiocyanate Conjugated, from Jackson Immunolaboratory U.S.A.). […] The slides were then washed with TBS as above and were then mounted with Fluoroguard antifade reagent (from Biorad Calif., USA).
The binding was then evaluated with a fluorescent microscope (IX70; Olympus), using a NIBA filter (Narrow Interference Blue A from Olympus).

[5] = tested on: Human Umbilical Vein Endothelial Cells (HUVEC); conditions: 500 ng of compound, 40 minutes
Experimental: HUVEC (CC-2517, obtained from Clonetics, Walkersville, Md.) were grown on tissue culture flasks in Endothelial cell medium (EGM-2 Bulletkit, CC 3162, Clonetics). Mid-confluent cultures were harvested using Trypsine/EDTA solution (CC-5012, Clonetics). The cells were rinsed twice with PBS containing 2% BSA and kept on ice. Samples of 10^6 cells were tested for binding.
The reactions were incubated at room temperature for 40 minutes and then 400 μl of TBS-BSA were added and cells were collected by centrifugation at 3000×g for 3 minutes. Cells were washed in 1 ml of TBS-BSA and centrifuged as before and then suspended in 100 μl of TBS-BSA containing streptavidin conjugated to flourescein (FITC) for detection of the bound biotinylated compound. […] Thereafter, 400 μl of TBS-BSA were added and cells were centrifuged and washed again with 1 ml of TBS-BSA as before and then resuspended in 400 μl of TSS and taken for FACS analysis.
The FACS analysis was performed on Beckton-Dickinson cell sorter, using lysis II software. Excitation was at 488 nm and emission for FITC detection was a 535 nm.
A dot plot analysis was done for each treatment.

apoptotic hepatocytes = assay type: in vivo; conditions: data not shown
Experimental: All animals were killed 2 hr after administration of antibody followed by organ removal. Heart, lung and liver were collected.
Formalin fixed paraffin-embedded tissues were sectioned (5 μm) for staining with Hematoxylin/Eosin or other techniques.
Endogenous peroxidase activity was blocked by incubation with 3% H2O2.
After washing with PBS, staining was developed with 3,3-diaminobenzidine tetrahydrochloride (DAB), and counterstained with Hematoxylin.
Liver sections from different lobes were used for detection of stained apoptotic cells compared to normal cells.
The percentage of apoptotic cells in the fields was estimated by evaluating parallel sections stained with Hematoxylin/Eosin. Analysis was performed blindly, since the pathologist performing the histological evaluation was unaware of the assignment of mice to the treatment or control group.

[6] = target: anionic phospholipid membranes; conditions: cited from earlier work
[7] = rabbits, intravenous injection; cited from earlier work

Substance | detection of early apoptotic cells ([1]; FIG. 3c) | early apoptotic cells double stained also with PI ([1]; early apoptotic cells) | binding intensity: ratio of FITC mean value of apoptotic cells to that of control cells ([1]; early apoptotic cells, FIG. 3b) | total FITC/total PI ratio ([1]; advanced apoptotic cells) | total FITC/total PI ratio ([1]; early apoptotic cells) | increase of clotting time by a factor as compared to control ([2]; 0.5-50 μM, control clotting time 40 seconds) | effect on procoagulant effect of apoptotic cells [3] | increase of clotting time by a factor ([3]; apoptotic cells) | staining of advanced apoptotic cells ([4]; 750 nM, FIG. 2c) | staining of cells in early apoptotic stages ([4]; 750 nM, FIG. 2c) | staining of control non-treated HeLa cells ([4]; 750 nM, fluorescent microscopy) | cells FITC positive [5] | anti-coagulant effect ([2]; RVV test, FIG. 4) | effect on procoagulant effect of apoptotic cells ([3]; listed as NST 301-C) | staining of DA-induced apoptotic HeLa cells ([4]; 250-750 nM compound, streptavidin-FITC, fluorescent microscopy) | staining pattern when exogenously added to the apoptotic cells (apoptotic hepatocytes) | Kd [6] | clearance within 5 minutes [7]
Myristate-GGGKKKKKRFSFKKSFKLSGFSFKKNKKK (SEQUENCE ID NO. 1)-(biotin) [NST301] | potent detector | 43% | 4 fold | 1.2 | 2.2 | 2.6 | fully reversing | 2 | intense labeling | light, peripheral staining | few of them were stained, and very faintly |  |  |  |  |  |  | 
GGGKKKKKRFSFKKSFKLSGFSFKKNKKK (SEQUENCE ID NO. 3) (Biotin)-OH [NST301-C, reference compound] |  |  |  |  |  |  | mild effect |  |  |  |  | 7% | Significant, though moderate effect | very modest effect | did not show any significant binding |  |  | 
Annexin V: 320 amino acid protein of the annexin family, Ca2+-dependent binding to anionic phospholipid membranes |  |  |  |  |  |  |  |  |  |  |  |  |  |  |  | same pattern of staining | 0.01 to 1 nM | 90%

Source: patent publication US6602852B1, “Basic peptides and pharmaceutical compositions containing same” (NST NeuroSurvival Technologies, Ltd., priority 1998, dated 2003)
